Results as given in patent EP1918289A2, “Crystalline fluoroquinolone arginine salt form” (Wockhardt Limited, priority 2002, dated 2005).

Assays:
[1] = antibacterial activity (minimum inhibitory concentration, MIC); conditions: compared with the R-(+)- and RS-(±)- acids
[2] = hygroscopicity (exposure or storage at relative humidity, gravimetric); conditions: on exposure at a relative humidity of 41%

C[C@H]1CCc2c(N3CCC(O)CC3)c(F)cc3c(=O)c(C(=O)O)cn1c23
antimicrobial activity [1]: more potent

S-(-)-9-fluoro-6,7-dihydro-8-(4-hydroxypiperidin-1-yl)-5-methyl-1-oxo-1 H,5H-benzo[i,j] quinolizine-2-carboxylic acid, L-arginine salt 0.25 hydrate
hygroscopicity [2]: highly hygroscopic and turn into syrups

S-(-)-9-fluoro-6,7-dihydro-8-(4-hydroxypiperin-1-yl)-5-methyl-1-oxo-1H,5H-benzo[i,j] quinolizine-2-carboxylic acid, L-arginine salt, 0.75 hydrate
hygroscopicity [2]: highly hygroscopic and turn into syrups
